The values that follow come from patent publication US20110217300A1, “Quinazolinone Compounds and Methods of Use Thereof” (priority 2007, published 2011).

For one assay, the target named is T1, HsEg5 (Homo sapiens, UniProt P52732).
T1 sequence (P52732 18-359 limits assumed): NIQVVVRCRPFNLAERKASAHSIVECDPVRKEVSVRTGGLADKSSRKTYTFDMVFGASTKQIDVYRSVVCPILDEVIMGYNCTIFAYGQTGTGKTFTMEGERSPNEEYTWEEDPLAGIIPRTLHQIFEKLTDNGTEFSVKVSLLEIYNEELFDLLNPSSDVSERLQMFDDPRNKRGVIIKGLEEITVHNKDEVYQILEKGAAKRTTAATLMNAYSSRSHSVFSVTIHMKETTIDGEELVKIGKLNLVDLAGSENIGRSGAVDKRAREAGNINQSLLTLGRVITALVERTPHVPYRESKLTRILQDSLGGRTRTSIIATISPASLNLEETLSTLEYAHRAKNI
Nature of the assay: Fluorescence detection of HsEg5 ATPase activity (ADP Quest, automated). The format is biochemical. The protocol:
Purified HsEg5 motor fragment was activated by mixture with preformed MT polymer (Cytoskeleton, Denver, Colo.) at room temperature for 20 minutes. MT activated ATPase activity was measured using ADP Quest (DiscoverX, Fremont, Calif.) in which a coupled-enzyme assay can translate accumulation of ADP into detectable resorufin signal (FIG. 1A). Fluorescence was measured at λEx=535 nm and λEm=590 nm on a Wallac Victor 2 plate reader (Perkin-Elmer Life Sciences, Boston, Mass.). Reagent A and B from ADP Quest kit were aliquoted and frozen in −20° C. before use. A standard curve was determined using the provided ADP reagent in the reaction buffer that consisted of 50 mM Pipes (pH7.0), 5.0 mM MgCl2, 20 μM paclitaxel and […]. The same buffer was used for Km determination with HsEg5 concentration of 10 nM.
For inhibitor screening, 4 μL of compounds were incubated with 10 μL of MT-activated HsEg5 such that the final concentrations for compound range from 100 μM to 5 nM (1 to 3 serial dilutions, final concentration) and final concentration for HsEg5 is 10 nM. The mixture was incubated at room temperature for 10 minutes with mild shaking. The screening assay contained 0.3% DMSO in all reaction wells. We used wells containing only DMSO as negative controls and wells without ATP as background. Addition of 6 μL ATP (final concentration of 20 μM) initiated the ATP hydrolysis reaction. The 20 μL-reaction was allowed to proceed at room temperature for 10 minutes before addition of 10 μL of reagent A and 20 μL of reagent B. After 20-minute development at room temperature, the fluorescence was measured and data analysis was performed using GraphPad Prism version 3.0 (GraphPad Software, San Diego, Calif.)
For the purpose of high-throughput screening, we automated the fluorescence assay using a Sciclone ALH3000 (Caliper Life Sciences, Hopkinton, Mass.) and Multidrop 384 (Thermo Electron Corp, Waltham, Mass.). First, compound dilution plates for screening (at 10 μM or 1 μM) and ICso determination (10 data points from 100 μM to 5 nM) were made in Corning polypropylene V-bottom 96-well plates. In both cases, the 1st and 7th column contained background (No ATP addition) and negative control (DMSO only). For screening compounds at 10 μM or 1 μM, […] of each compound at 50 μM or 5 μM were used in a 20 μL assay reaction. For IC50 determination, the mother compound plate contained 24 μL of tested compound at stock concentration of 30 mM. 6 μL of each test compound in 30 mM was added to each well in the column 2 and followed by 1:3 serial dilutions in DMSO with the Sciclone ALH3000. 234 μL of assay buffer was then added using a Multidrop 384. Then 4 μL of diluted compounds was used in 20 μL-reaction. The final concentration was a 1:300 dilution of the original stock. Second, a reagent source plate was prepared with three rows designated to MT-activated HsEg5, Reagent A and Reagent B respectively. MTs were diluted with assay buffer and polymerized at room temperature for 10 minutes. Just before use, HsEg5 protein was thawed on ice and activated by addition of MT polymers at room temperature for 20 minutes. HsEg5/MT was then added to Row A of the reagent source plate. The final assay concentration was 10 nM HsEg5 and 500 nM MTs. Reagent A and B were stored at −20° C. and thawed at room temperature followed by transferring to rows B & C of the reagent source plate. Third, ATP substrate plate was prepared by transferring 80 μM ATP solution to each well of a V-shape 96-well plate except the wells in the first row where assay buffer was added instead to have no-ATP blanks. The final concentration for ATP in the assay was 20 μM.
The assay was programmed on Sciclone ALH3000 with the following procedures: 1) Addition of 4 μL compounds to the assay plate, followed by addition of 10 μL of MT-activated HsEg5. […]

For a further assay, the system named is NCI-H460. Nature of the assay: MTS cell viability assay. The format is cell-based, human. Particulars: Homo sapiens, NCI-H460, 72 h. The protocol: Cell viability was determined by measuring the activity of dehydrogenase enzymes in metabolically active cells using a tetrazolium compound, MTS. The assay was performed as described in Promega Technical Bulletin No. 169 (CellTiter 96 Aqueous Non-Radioactive Cell Proliferation Assay). Two human cancer cell lines were assayed (see, Table 1). Cells were maintained at 37° C. and 5% CO2 in DMEM media (4.5 g/L glucose) supplemented with 10% heat-inactivated FBS, 10 mM L-glutamine, and 10 mM Hepes pH 7.5. Briefly, cells were seeded in 96-well plates as set forth in Table 1 and incubated for 16-24 hours. Candidate compounds were serially diluted in DMSO, further diluted in cell culture media, and then added to cells (final DMSO concentration of 0.33%). Cells were incubated in the presence of candidate compound for 72 hours. MTS stock solution (MTS 2 gm/L, PMS […] in PBS) was added to the cells (final concentration MTS […] and PMS 7.67 mg/L) and incubated for 4 hours. SDS was added to a final concentration of 1.4% and absorbance at 490 nm was measured within two hours using a plate reader. […] GI50 values were given in Table 2 for the compounds listed. The Compound Numbers in Table 2 correspond to the numbers listed parenthetically in the Example titles. Where multiple measurements were made by different technicians, both values are given.
Cell viability was determined for N-(3-amino-propyl)-3-chloro-N—[(R)-1-(7-chloro-4-oxo-3-phenylamino-3,4-dihydro-quinazolin-2-yl)-but-3-ynyl]-2-fluoro-benzamide (compound I of Table 2). The cell viability assay of Example 105 was used. GI50 was determined using a variety of cell lines. Cells were plated at 100-5000 cells per well. At least 2 replicates were performed. Where multiple measurements were made by different technicians, both values are given.
A general note: Tetrazolium dyes change colour on reduction, which living cells bring about.

The test system of another assay is A549. The assay can be described thus: MTS cell viability assay. The format is cell-based. Particulars: Homo sapiens, A549 non small cell lung, 72 hours, read-out: MTS NCI A549 GI50. The protocol: Two human cancer cell lines were assayed (see, Table 1). Cells were maintained at 37° C. and 5% CO2 in DMEM media (4.5 g/L glucose) supplemented with 10% heat-inactivated FBS, 10 mM L-glutamine, and 10 mM Hepes pH 7.5. Briefly, cells were seeded in 96-well plates as set forth in Table 1 and incubated for 16-24 hours. Candidate compounds were serially diluted in DMSO, further diluted in cell culture media, and then added to cells (final DMSO concentration of 0.33%). Cells were incubated in the presence of candidate compound for 72 hours. […] The Compound Numbers in Table 2 correspond to the numbers listed parenthetically in the Example titles.

Setting [1] is: read-out: MTS NCI H460 GI50, NCI-H460 non small cell lung, 72 hours.

Read-outs that look alike come from different tables or passages of the source.

A word on the IC50: it is the midpoint of a concentration-inhibition curve. Read a high IC50 as a need for much substance. Broadly, the GI50 is the concentration at which growth is held to half of that of the control.

Regarding `CC(C)C(c1nc2cc(Cl)ccc2c(=O)n1Nc1ccccc1)N(CCCN)C(=O)c1ccc(F)cc1` (stereo not drawn) [Compound 43, N-(3-Aminopropyl)-N-[1-(3-anilino-7-chloro-4-oxo-3,4-dihydroquinazolin-2-yl)-2-methylpropyl]-4-fluorobenzamide], the IC50 against HsEg5 came to 833 nM. The GI50 in the assay on NCI-H460 (read-out: MTS NCI H460 GI50) is 2810 nM; in the assay with A549, 3490 nM.

At HsEg5, `CCC(c1nc2cc(Cl)ccc2c(=O)n1Nc1ccccc1)N(CCCN)C(=O)c1ccc(Br)cc1` (stereo not drawn) [Compound 2, N-(3-Aminopropyl)-N-[1-(3-anilino-7-chloro-4-oxo-3,4-dihydroquinazolin-2-yl)propyl]-4-bromobenzamide] gave an IC50 of 645 nM. The GI50 was 1750 nM in the assay on NCI-H460 (read-out: MTS NCI H460 GI50) and 2370 nM with A549.

With `CC(C)C(c1nc2cc(Cl)ccc2c(=O)n1Nc1ccccc1)N(CCCN)C(=O)c1cc(F)c(Cl)cc1F` (stereo not drawn) [Compound 45, N-(3-Aminopropyl)-N-[1-(3-anilino-7-chloro-4-oxo-3,4-dihydroquinazolin-2-yl)-2-methylpropyl]-4-chloro-2,5-difluorobenzamide], on HsEg5, the IC50 amounted to 743 nM. Also, the figures for the GI50 with NCI-H460 (read-out: MTS NCI H460 GI50) and with A549 were 3170 nM and 3240 nM, respectively.

`CCC(c1nc2cc(Cl)ccc2c(=O)n1Nc1ccccc1)N(CCCN)C(=O)c1cccc(F)c1F` (stereo not drawn) [Compound 7, N-(3-Aminopropyl)-N-[1-(3-anilino-7-chloro-4-oxo-3,4-dihydroquinazolin-2-yl)propyl]-2,3-difluorobenzamide] came in with a 50% inhibitory concentration (IC50) against HsEg5 of 566 nM. For the same molecule, the GI50 with NCI-H460 (read-out: MTS NCI H460 GI50) came out at 1770 nM; in the assay with A549, 2570 nM.

`CC(C)CC(c1nc2cc(Cl)ccc2c(=O)n1Nc1ccccc1)N(CCCN)C(=O)c1ccc(F)c(F)c1` (stereo not drawn) [Compound 35, N-(3-Aminopropyl)-N-[1-(3-anilino-7-chloro-4-oxo-3,4-dihydroquinazolin-2-yl)-3-methylbutyl]-3,4-difluorobenzamide] showed an IC50 against HsEg5 of 1960 nM. For the same molecule, the concentration for 50% growth inhibition (GI50) with NCI-H460 (read-out: MTS NCI H460 GI50) was 6150 nM; in the assay on A549 it was 4520 nM.

As for `NCCCN(C(=O)c1ccc(Cl)c(Cl)c1)C(Cc1ccc(O)cc1)c1nc2cc(Cl)ccc2c(=O)n1Nc1ccccc1` (stereo not drawn) [Compound 54, N-(3-Aminopropyl)-N-[1-(3-anilino-7-chloro-4-oxo-3,4-dihydroquinazolin-2-yl)-2-(4-hydroxyphenyl)ethyl]-3,4-dichlorobenzamide], the IC50 at HsEg5 amounted to 2410 nM. Moreover, the GI50 in the assay on NCI-H460 (setting [1]) worked out at 11900 nM; with A549 (A549, 72 h), 12200 nM.

At HsEg5, `NCCCN(C(=O)c1ccc(Br)cc1)C(Cc1cccs1)c1nc2cc(Cl)ccc2c(=O)n1Nc1ccccc1` (stereo not drawn) [Compound 48, N-(3-Aminopropyl)-N-[1-(3-anilino-7-chloro-4-oxo-3,4-dihydroquinazolin-2-yl)-2-(2-thienyl)ethyl]-4-bromobenzamide] gave an IC50 of 2570 nM. Besides, the GI50 in the assay on NCI-H460 (read-out: MTS NCI H460 GI50) was 4360 nM; with A549, 4930 nM.

The molecule `CCC(c1nc2cc(Cl)ccc2c(=O)n1Nc1ccccc1)N(CCCN)C(=O)c1ccc(C)cc1` (stereo not drawn) [Compound 3, N-(3-Aminopropyl)-N-[1-(3-anilino-7-chloro-4-oxo-3,4-dihydroquinazolin-2-yl)propyl]-4-methylbenzamide] gave an IC50 against HsEg5 of 702 nM. Besides, the GI50 in the assay on NCI-H460 (setting [1]) was determined as 1190 nM; in the assay with A549 (A549, 72 h), 2300 nM.

As to `CCC(c1nc2cc(Cl)ccc2c(=O)n1Oc1ccccc1)N(CCCN)C(=O)c1ccc(C)cc1` (stereo not drawn) [Compound 29, N-(3-Aminopropyl)-N-[1-(7-chloro-4-oxo-3-phenoxy-3,4-dihydroquinazolin-2-yl)propyl]-4-methylbenzamide], the IC50 against HsEg5 came out at 2170 nM. Further, the GI50 in the assay with NCI-H460 (setting [1]) was 2090 nM; in the assay on A549 (A549, 72 h), 3310 nM.

Turning to `C#CCC(c1nc2cc(Cl)ccc2c(=O)n1Nc1ccccc1)N(CCCN)C(=O)c1cccc(Cl)c1F` (stereo not drawn) [Compound 57, N-(3-Aminopropyl)-N-[1-(3-anilino-7-chloro-4-oxo-3,4-dihydroquinazolin-2-yl)but-3-yn-1-yl]-3-chloro-2-fluorobenzamide], half-maximal inhibition on HsEg5 (IC50) required 50.6 nM. Also, the GI50 was determined as 766 nM in the assay with NCI-H460 (read-out: MTS NCI H460 GI50) and 433 nM in the assay with A549.

For the molecule `CCC(c1nc2cc(Cl)ccc2c(=O)n1Nc1ccccc1)N(CCCN)C(=O)c1ccc(C)c(F)c1` (stereo not drawn) [Compound 16, N-(3-Aminopropyl)-N-[1-(3-anilino-7-chloro-4-oxo-3,4-dihydroquinazolin-2-yl)propyl]-3-fluoro-4-methylbenzamide], half-maximal inhibition on HsEg5 (IC50) required 1150 nM. Further, the concentration for 50% growth inhibition (GI50) with NCI-H460 (read-out: MTS NCI H460 GI50) came out at 929 nM; in the assay on A549 it was 1360 nM.

Turning to `CCC(c1nc2cc(Cl)ccc2c(=O)n1Nc1ccccc1)N(CCCN)C(=O)c1ccc(-n2cccn2)cc1` (stereo not drawn) [Compound 23, N-(3-Aminopropyl)-N-[1-(3-anilino-7-chloro-4-oxo-3,4-dihydroquinazolin-2-yl)propyl]-4-(1H-pyrazol-1-yl)benzamide], on HsEg5, the IC50 worked out at 1020 nM. Moreover, the GI50 worked out at 1120 nM with NCI-H460 (setting [1]) and 2490 nM in the assay on A549 (A549, 72 h).
